Measured values from patent US11591352B2, “Method for treatment of senescence-related disorders” (SPRINGTIDE VENTURES S.R.O., priority 2016, dated 2023).
Where two headings read alike, the source gives them in different places.

Assays:
[1] = test system: B-gal positive (senescent) cells in lungs; experiment: B-gal staining of lungs of young and naturally old FVB mice treated with compound 8; type: in vivo; conditions: for % of B-gal positive cells: 1 μg/g every week for 4 weeks
Method: We first analyzed the presence of senescent cells (using B-galactosidase (B-gal) staining) in organs in these two groups. From all tested organs (lungs, brain, white adipose tissue and stomach), we detected the biggest difference in presence of B-gal-positive cells in lungs (not shown). In the next step we treated the mice (6×19 month old mice+6×2 month old mice) with 1 dose of compound 8 (1 μg of compound 8/1 g mouse) every week for a period of 4 weeks. Mice (5×19 month old mice+6×2 month old mice) treated only with a corn oil without compound 8 were used as a control. After 4 weeks we removed lungs and detected percentage of B-gal positive cells in the tissues.

[2] = test system: p16, p21 and plasminogen activator inhibitor (PAI) mRNA; experiment: qRT PCR of senescent markers in organs of young and old FVB mice; type: in vivo
BxPC-3 (senescent) = experiment: Viability (Annexin V/Hoechst) of senescent pancreatic cells; type: cell-based; conditions: 48 h
Method: (§1) We tested the effect of compound 8 on cultured senescent pancreatic cells. We used three pancreatic cell lines (PANC-1, PaTu and BxPC-3) exposed to 100 μM BrdU for 6 days to induce senescence. These senescent cells were treated with different doses of compound 8 for 48 h and their viability was assessed. […] RPE cells, as the most sensitive tested cells, were used as a control to establish the concentration at which compound 8 is not toxic for non-senescent cells.

PANC-1 (senescent) = experiment: as above; type: cell-based; conditions: 48 h
Method: as §1

PaTu (senescent) = experiment: as above; type: cell-based; conditions: 48 h
Method: as §1

RPE (control) = experiment: Viability (Annexin V/Hoechst) of non-senescent control cells; type: cell-based; conditions: 48 h
Method: as §1

[3] = test system: p16, p21 and PAI mRNA in 4T1 cell-derived tumours; experiment: qRT PCR of senescent markers in 4T1 cell-derived tumours; type: in vivo, Balb-c mice
[4] = test system: p16, p21 and PAI mRNA in FVB/cneu spontaneous tumours; experiment: qRT PCR of senescent markers in spontaneous tumours; type: in vivo, FVB mice
[5] = test system: p16 and p21 mRNA in PDX (triple-negative breast tumour); experiment: qRT PCR of senescence markers in patient-derived xenografts; type: in vivo, NOD scid gamma mice
Method: Importantly, we repeated this experiment using patient-derived xenografts (PDXs; triple-negative breast tumour) transplanted into NOD scid gamma mice and treated with compound 8 (0.375 mg of compound 8/mouse, twice per week for a period of 2-3 weeks).

RPE cells = experiment: Lactate production in RPE cells; type: cell-based
Source text: (§2) Adenin nucleotid translocase 2 (ANT2) is a protein important for translocation of ATP from cytoplasm to mitochondria unlike two other members of ANT family, ANT1 and ANT3, participating in classical transfer of ADP into mitochondria via complex V during mitochondrial respiration. ANT2 plays a key role in maintenance of mitochondrial potential and in preserving intact mitochondria, especially in tumour cells. […] All these experiments show a key role of ANT2 in compound 8 resistance.

[6] = test system: RPE cells (siNC / siANT2); experiment: Viability of RPE cells after ANT2 downregulation by siRNA; type: cell-based
Source text: as §2

[7] = test system: RPE cells with inducible ANT2; experiment: Viability of RPE cells transfected with inducible ANT2; type: cell-based
Source text: as §2

[8] = test system: control retinal pigment epithelial cells (RPE); experiment: Viability (annexin V/Hoechst) of control RPE cells; type: cell-based; conditions: for % of Annexin V-/Hoechst-cells: ctrl
Method: (§3) The effect of compounds 7, 8, 10, 15 on primary senescent cells (retinal pigment epithelial cells (RPE) treated for 8 days with 100 μM 5-bromo-2-deoxyuridine (BrdU)) was tested.

[9] = test system: senescent retinal pigment epithelial cells (RPE) treated with BrdU
Method: as §3

[10] = test system: senescent retinal pigment epithelial cells (RPE) treated with BrdU; experiment: Viability (annexin V/Hoechst) of senescent RPE cells; conditions: for % of Annexin V-/Hoechst-cells: BrdU; for selectivity of cytotoxicity for senescent versus control cells (in words): senescent (BrdU) vs control RPE cells
Method: as §3

[11] = BALBe/4T1 tumors, treated, 0.2 mg/mouse twice per week for 2-3 weeks
[12] = FVB/cneu tumors, treated, 0.2 mg/mouse twice per week for 2-3 weeks
[13] = PDX tumors, treated, 0.375 mg/mouse twice per week for 2-3 weeks

CN(C)CCOc1ccc(/C(=C(/CCCCCCCCCC[P+](c2ccccc2)(c2ccccc2)c2ccccc2)c2ccccc2)c2ccccc2)cc1.[Br-] [compound 8]
% of B-gal positive cells ([1]; 2 month old mice): 0.3%
% of B-gal positive cells ([1]; 19 month old mice): 0.7%
number of B-gal-positive cells after treatment (in words) ([1]; old mice): decrease of their number
PAI mRNA fold change ([2]; kidney, 2 m treated): 0.47 (+/− 0.09) fold change
p16 mRNA fold change ([2]; kidney, 2 m treated): 0.02 (+/− 0.01) fold change
p21 mRNA fold change ([2]; kidney, 2 m treated): 0.25 (+/− 0.05) fold change
PAI mRNA fold change ([2]; kidney, 19 m treated): 0.79 (+/− 0.17) fold change
p16 mRNA fold change ([2]; kidney, 19 m treated): 0.79 (+/− 0.31) fold change
p21 mRNA fold change ([2]; kidney, 19 m treated): 0.34 (+/− 0.11) fold change
PAI mRNA fold change ([2]; lungs, 2 m treated): 0.69 (+/− 0.12) fold change
p16 mRNA fold change ([2]; lungs, 2 m treated): 0.63 (+/− 0.07) fold change
p21 mRNA fold change ([2]; lungs, 2 m treated): 0.30 (+/− 0.06) fold change
PAI mRNA fold change ([2]; lungs, 19 m treated): 0.93 (+/− 0.22) fold change
p16 mRNA fold change ([2]; lungs, 19 m treated): 0.74 (+/− 0.12) fold change
p21 mRNA fold change ([2]; lungs, 19 m treated): 0.39 (+/− 0.03) fold change
level of senescent markers p16, p21, PAI mRNA after treatment (in words) ([2]; old mouse tissue): decreased almost to control levels
% of AnnexinV-/Hoechst-cells (BxPC-3 (senescent); 0.1 μM): 47.7 (+/− 0.49) %
% of AnnexinV-/Hoechst-cells (BxPC-3 (senescent); 0.5 μM): 35.9 (+/− 6.22) %
% of AnnexinV-/Hoechst-cells (BxPC-3 (senescent); 1 μM): 4.8 (+/− 0.83) %
% of AnnexinV-/Hoechst-cells (BxPC-3 (senescent); 2.5 μM): 3.9 (+/− 1.69) %
% of AnnexinV-/Hoechst-cells (PANC-1 (senescent); 0.1 μM): 92.3 (+/− 0.78) %
% of AnnexinV-/Hoechst-cells (PANC-1 (senescent); 0.5 μM): 92.7 (+/− 1.27) %
% of AnnexinV-/Hoechst-cells (PANC-1 (senescent); 1 μM): 5.0 (+/− 1.97) %
% of AnnexinV-/Hoechst-cells (PANC-1 (senescent); 2.5 μM): 3.1 (+/− 0.68) %
% of AnnexinV-/Hoechst-cells (PaTu (senescent); 0.1 μM): 24.7 (+/− 3.25) %
% of AnnexinV-/Hoechst-cells (PaTu (senescent); 0.5 μM): 10.3 (+/− 0.97) %
% of AnnexinV-/Hoechst-cells (PaTu (senescent); 1 μM): 3.6 (+/− 3.24) %
% of AnnexinV-/Hoechst-cells (PaTu (senescent); 2.5 μM): 2.4 (+/− 1.21) %
% of AnnexinV-/Hoechst-cells (RPE (control); 0.1 μM): 98.9 (+/− 0.14) %
% of AnnexinV-/Hoechst-cells (RPE (control); 0.5 μM): 98.8 (+/− 0.21) %
% of AnnexinV-/Hoechst-cells (RPE (control); 1 μM): 98.3 (+/− 0.14) %
% of AnnexinV-/Hoechst-cells (RPE (control); 2.5 μM): 99.1 (+/− 0.35) %
PAI mRNA fold change [3, 11]: 0.59 (+/− 0.22) fold change
p16 mRNA fold change [3, 11]: 0.20 (+/− 0.08) fold change
p21 mRNA fold change [3, 11]: 0.77 (+/− 0.18) fold change
increase of senescent markers p16, p21 and PAI on the mRNA level (in words) ([3]; Balb-c mice with 4T1 tumours, 0.2 mg/mouse twice per week, 2-3 weeks): did not observe any increase
increase of senescent markers p16, p21 and PAI on the mRNA level (in words) ([4]; FVB mice with spontaneous tumours, 0.2 mg/mouse twice per week, 2-3 weeks): did not observe any increase
PAI mRNA fold change [4, 12]: 1.93 (+/− 1.19) fold change
p16 mRNA fold change [4, 12]: 0.39 (+/− 0.24) fold change
p21 mRNA fold change [4, 12]: 1.94 (+/− 1.43) fold change
increase of senescence markers (in words) ([5]; PDX in NOD scid gamma mice, 0.375 mg/mouse twice per week, 2-3 weeks): no increase
p2l mRNA fold change [5, 13]: 0.72 (+/− 0.84) fold change
p16 mRNA fold change [5, 13]: 1.34 (+/− 1.25) fold change
Lactate production (fold induction) (RPE cells; RPE BrdU (senescent) treated): 8.2 fold induction
Lactate production (fold induction) (RPE cells; RPE ctrl treated): 1.6 fold induction
% of AnnexinV-/Hoechst-cells ([6]; RPE siANT2 treated): 20.7%
% of AnnexinV-/Hoechst-cells ([6]; RPE siNC treated): 90.5%
death of control cells with downregulated ANT2 after treatment (in words) ([6]; RPE, ANT2 siRNA): increased death of these cells
resistance of senescent cells with induced ANT2 towards treatment (in words) ([7]; RPE BrdU + ANT2): increased resistance
% of AnnexinV-/Hoechst-cells ([7]; RPE BrdU + ANT2 treated): 53.8%
% of AnnexinV-/Hoechst-cells ([7]; RPE BrdU treated): 6.8%
% of AnnexinV-/Hoechst-cells ([7]; RPE ctrl + ANT2 treated): 95.2%
% of AnnexinV-/Hoechst-cells ([7]; RPE ctrl treated): 95.0%
effect on control cells (in words) ([8]; control RPE): without any effect on control cells
% of Annexin V-/Hoechst-cells ([8]; 1 μM): 93.0%
% of Annexin V-/Hoechst-cells ([8]; 2.5 μM): 90.3%
% of Annexin V-/Hoechst-cells ([8]; 5 μM): 3.1%
selectivity of cytotoxicity for senescent versus control cells (in words) [9]: selectively more cytotoxic to senescent cells
% of Annexin V-/Hoechst-cells ([10]; 1 μM): 67.0%
% of Annexin V-/Hoechst-cells ([10]; 2.5 μM): 13.9%
% of Annexin V-/Hoechst-cells ([10]; 5 μM): 0.8%
effect on elimination of senescent cells (in words) ([10]; RPE, 100 μM BrdU for 8 days): specific effect on elimination of senescent cells

CN(C)CCOc1ccc(/C(=C(/CCCCCCCCCCBr)c2ccccc2)c2ccccc2)cc1 [compound 7]
% of Annexin V-/Hoechst-cells ([8]; 0.05 μM): 94.6%
% of Annexin V-/Hoechst-cells ([8]; 0.1 μM): 95.1%
% of Annexin V-/Hoechst-cells ([8]; 0.5 μM): 91.4%
% of Annexin V-/Hoechst-cells ([10]; 0.05 μM): 80.5%
% of Annexin V-/Hoechst-cells ([10]; 0.1 μM): 78.3%
% of Annexin V-/Hoechst-cells ([10]; 0.5 μM): 55.3%
selectivity of cytotoxicity for senescent versus control cells (in words) [10]: selectively more cytotoxic to senescent cells

CC/C(=C(\c1ccccc1)c1ccc(OCCN(C)C)cc1)c1ccccc1 [Tamoxifen]
% of Annexin V-/Hoechst-cells ([8]; 1 μM): 97.0%
% of Annexin V-/Hoechst-cells ([8]; 2.5 μM): 96.7%
% of Annexin V-/Hoechst-cells ([8]; 5 μM): 94.7%
% of Annexin V-/Hoechst-cells ([8]; 10 μM): 55.8%
% of Annexin V-/Hoechst-cells ([8]; 20 μM): 2.15%
decrease of viability (in words) ([10]; 10 μM, both senescent and control cells): by about half
cytotoxicity (in words) ([10]; 20 μM, both senescent and control cells): highly cytotoxic
% of Annexin V-/Hoechst-cells ([10]; 1 μM): 73.8%
% of Annexin V-/Hoechst-cells ([10]; 2.5 μM): 73.0%
% of Annexin V-/Hoechst-cells ([10]; 5 μM): 70.1%
% of Annexin V-/Hoechst-cells ([10]; 10 μM): 33.8%
% of Annexin V-/Hoechst-cells ([10]; 20 μM): 4.3%
selectivity of cytotoxicity for senescent versus control cells (in words) [10]: does not at any tested concentration have a significantly higher toxicity for senescent cells than for control cells
cytotoxicity (in words) ([10]; up to 5 μM, senescent and control cells): does not show cytotoxicity
